Assay results from US9944654B2, “Nargenicin compounds and uses thereof as antibacterial agents” (priority 2014, dated 2018).
Converted amounts (≈) assume the structure as drawn. Where two headings read alike, the source gives them in different places.

Columns and labels:
[1] = test system: Pseudomonas aeruginosa MB5890 (CB1101, efflux-deleted); test: microbe, parasite or virus in culture; type: cell-based; settings: * = some reduction of growth versus control at […]; for MIC: Pseudomonas aeruginosa, read-out: P. aeruginosa MB5890 efflux-del (MIC), MHII broth
[2] = biological target: T1, E. coli DnaE (DNA polymerase III α-subunit from Escherichia coli) (Escherichia coli, UniProt P10443); test: In vitro DnaE single enzyme assay (E. coli); type: biochemical
T1 construct: EcDnaE (E. coli DnaE residues 1-1160); 6xHis (N); made in house; host or cells: E. coli BL21(DE3)
T1 sequence (P10443 whole entry, the tested form may be a part): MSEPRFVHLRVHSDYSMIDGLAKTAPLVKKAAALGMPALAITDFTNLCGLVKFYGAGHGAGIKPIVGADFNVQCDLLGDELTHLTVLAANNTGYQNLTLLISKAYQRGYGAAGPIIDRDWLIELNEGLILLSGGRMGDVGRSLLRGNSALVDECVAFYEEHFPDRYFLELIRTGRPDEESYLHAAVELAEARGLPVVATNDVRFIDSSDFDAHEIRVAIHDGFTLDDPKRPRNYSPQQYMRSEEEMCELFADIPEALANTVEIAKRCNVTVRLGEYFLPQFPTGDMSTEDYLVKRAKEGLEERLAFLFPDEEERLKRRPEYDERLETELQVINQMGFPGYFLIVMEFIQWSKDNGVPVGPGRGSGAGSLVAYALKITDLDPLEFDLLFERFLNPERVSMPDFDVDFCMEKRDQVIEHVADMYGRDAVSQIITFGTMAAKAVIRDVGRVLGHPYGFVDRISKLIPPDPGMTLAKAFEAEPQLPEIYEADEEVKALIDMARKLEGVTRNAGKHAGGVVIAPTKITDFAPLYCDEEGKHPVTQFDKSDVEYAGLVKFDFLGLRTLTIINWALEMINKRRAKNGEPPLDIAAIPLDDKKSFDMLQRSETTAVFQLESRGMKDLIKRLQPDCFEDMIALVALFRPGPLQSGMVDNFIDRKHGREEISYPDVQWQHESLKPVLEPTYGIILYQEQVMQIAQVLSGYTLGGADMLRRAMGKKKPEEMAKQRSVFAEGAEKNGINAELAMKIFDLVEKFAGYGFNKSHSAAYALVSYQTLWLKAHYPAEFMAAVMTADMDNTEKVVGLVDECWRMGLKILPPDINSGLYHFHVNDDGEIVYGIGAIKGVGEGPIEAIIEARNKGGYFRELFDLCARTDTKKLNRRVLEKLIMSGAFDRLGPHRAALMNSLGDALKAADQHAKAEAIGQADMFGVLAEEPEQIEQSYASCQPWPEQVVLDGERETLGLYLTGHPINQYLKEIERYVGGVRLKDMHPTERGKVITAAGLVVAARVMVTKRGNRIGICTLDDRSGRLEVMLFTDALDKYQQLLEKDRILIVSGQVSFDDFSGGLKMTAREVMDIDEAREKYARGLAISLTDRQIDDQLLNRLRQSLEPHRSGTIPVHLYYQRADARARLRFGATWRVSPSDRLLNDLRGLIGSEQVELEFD
Procedure, shortened: (§1)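 3H-dTTP (0.011 mM) incorporation into DNase I-activated calf thymus DNA, alongside the other three dNTPs at 0.025 mM, measured by filter counting after TCA precipitation. Reactions ran 30 min at 30° C., started with purified N-His DnaE: 0.8 μg/ml for E. coli, 0.05 μg/ml for S. aureus.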

[3] = test system: Staphylococcus aureus MB6266 (MRSA COL); test: Nargenicin antibacterial assay (MIC), S. aureus; type: cell-based; settings: * = some reduction of growth versus control at […]; for MIC: Staphylococcus aureus, MRSA, read-out: S. aureus COL (MIC), MHII broth + 50% human serum
[4] = test system: Streptococcus pneumoniae MB6357 (CL 2883); test: Nargenicin antibacterial assay (MIC), S. pneumoniae; type: cell-based; settings: * = some reduction of growth versus control at […]; for MIC: Streptococcus pneumoniae, read-out: S. pneumoniae MB2883 (MIC), Isosensitest broth
[5] = biological target: T2, S. aureus DnaE (DNA polymerase III α-subunit homolog from Staphylococcus aureus) (Staphylococcus aureus, UniProt Q5HF71); test: biochemical; type: biochemical
T2 construct: SaDnaE (S. aureus DnaE residues 1-1065); 6xHis (N); made in house; host or cells: E. coli BL21-AI
T2 sequence (Q5HF71 1-1065): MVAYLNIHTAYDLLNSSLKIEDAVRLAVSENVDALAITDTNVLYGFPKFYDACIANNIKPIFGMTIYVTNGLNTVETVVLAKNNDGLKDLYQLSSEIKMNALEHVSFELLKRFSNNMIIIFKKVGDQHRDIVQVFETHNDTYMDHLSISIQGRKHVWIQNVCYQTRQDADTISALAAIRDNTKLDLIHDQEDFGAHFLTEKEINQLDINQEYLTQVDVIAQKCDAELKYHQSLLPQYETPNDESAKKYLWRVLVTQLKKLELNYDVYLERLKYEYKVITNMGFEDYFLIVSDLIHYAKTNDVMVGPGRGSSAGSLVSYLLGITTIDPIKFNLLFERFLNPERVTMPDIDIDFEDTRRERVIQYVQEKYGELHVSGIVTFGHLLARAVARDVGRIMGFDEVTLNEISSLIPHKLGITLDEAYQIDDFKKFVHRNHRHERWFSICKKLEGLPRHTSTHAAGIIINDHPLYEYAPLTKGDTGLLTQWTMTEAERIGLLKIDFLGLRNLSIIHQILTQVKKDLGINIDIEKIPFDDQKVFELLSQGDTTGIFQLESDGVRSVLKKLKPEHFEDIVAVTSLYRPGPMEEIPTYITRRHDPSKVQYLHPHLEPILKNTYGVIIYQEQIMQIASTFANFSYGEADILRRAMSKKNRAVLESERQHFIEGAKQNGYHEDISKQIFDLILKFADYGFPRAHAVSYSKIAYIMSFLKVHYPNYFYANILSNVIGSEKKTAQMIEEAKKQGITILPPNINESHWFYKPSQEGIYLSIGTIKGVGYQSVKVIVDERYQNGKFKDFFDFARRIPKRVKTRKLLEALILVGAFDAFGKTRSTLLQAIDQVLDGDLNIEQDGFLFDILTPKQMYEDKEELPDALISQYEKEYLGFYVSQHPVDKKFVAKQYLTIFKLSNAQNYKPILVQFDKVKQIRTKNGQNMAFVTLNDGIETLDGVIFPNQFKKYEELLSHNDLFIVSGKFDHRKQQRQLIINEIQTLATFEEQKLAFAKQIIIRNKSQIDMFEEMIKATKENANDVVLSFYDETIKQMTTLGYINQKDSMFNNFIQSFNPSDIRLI
Procedure, shortened: as §1

[6] = test system: Escherichia coli MB5747 (LS 883, tolC); test: microbe, parasite or virus in culture; type: cell-based; settings: * = some reduction of growth versus control at […]; for MIC: Escherichia coli, read-out: E. coli LS883 tolC (MIC), MHII broth
[7] = read-out: E. coli DnaE IC50 (converted)

Compound	MIC [1]	IC50 [2, 7]	MIC [3]	MIC [4]	IC50 ([5]; S. aureus DnaE IC50)	MIC [6]	IC50 ([2]; E. coli DnaE IC50)	IC50 ([5]; read-out: S. aureus DnaE IC50 (converted))	P. aeruginosa MB5890 efflux-del (MIC) ([1]; MHII broth)	S. aureus COL (MIC) ([3]; MHII broth + 50% human serum)	S. pneumoniae MB2883 (MIC) ([4]; Isosensitest broth)	IC50 ([5]; read-out: S. aureus DnaE IC50)	E. coli LS883 tolC (MIC) ([6]; MHII broth)
CO[C@H]1CC2C=C[C@H]3[C@H]4O[C@]2(/C(C)=C/[C@@H](C)[C@@H]([C@@H](C)O)OC1=O)[C@@H]3[C@H](OC(N)=O)[C@@H](C)[C@H]4OC(=O)c1ccc[nH]1 (stereo partly drawn) [Example 38, (3R,4S,7S,10aR,11R,12R,13R,14R,14aS,14bS,E)-14-(carbamoyloxy)-4-((R)-1-hydroxyethyl)-7-methoxy-1,3,13-trimethyl-6-oxo-3,4,6,7,8,8a,10a,11,12,13,14,14 a-dodecahydro-11,14b-epoxynaphtho[2,1-e]oxecin-12-yl 1H-pyrrole-2-carboxylate]	> 128 µg/mL	~197 µM	32 µg/mL	128 µg/mL (≈ 229 µM)	0.0394 µM	16 µg/mL (≈ 28.6 µM)	–	–	–	–	–	–	–
CO[C@H]1C[C@H]2C=C[C@H]3[C@H]4O[C@]2(/C(C)=C/[C@@H](C)[C@H](C)OC1=O)[C@@H]3[C@H](O)[C@@H](C)[C@H]4OC(=O)c1ccc[nH]1 [Example 48, (3R,4S,7S,8aS,10aR,11R,12R,13R,14R,14aS,14bS,E)-14-hydroxy-7-methoxy-1,3,4,13-tetramethyl-6-oxo-3,4,6,7,8,8a,10a,11,12,13,14,14a-dodecahydro-11,14b-epoxynaphtho[2,1-e]oxecin-12-yl 1H-pyrrole-2-carboxylate]	> 128 µg/mL	–	> 128 µg/mL	128 µg/mL (≈ 264 µM)	0.165 µM	64 µg/mL (≈ 132 µM)	> 206 µM	–	–	–	–	–	–
CO[C@H]1C[C@H]2C=C[C@H]3[C@H]4O[C@]2(/C(C)=C/[C@@H](C)[C@@H]([C@@H](C)OC(=O)NC2CC2)OC1=O)[C@@H]3[C@H](O)[C@@H](C)[C@H]4OC(=O)c1ccc[nH]1 [Example 6]	> 128 µg/mL	75.2 µM	8 µg/mL	128 µg/mL (≈ 214 µM)	0.0184 µM	4 µg/mL (≈ 6.68 µM)	–	–	–	–	–	–	–
CO[C@H]1C[C@H]2C=CC3C4[C@H](OC(=O)C(=O)OCCN5CCN(C)CC5)[C@@H](C)[C@@H](OC(=O)c5ccc[nH]5)[C@@H]3O[C@]42/C(C)=C/[C@@H](C)[C@@H]([C@@H](C)OC(=O)C(=O)OCCN2CCN(C)CC2)OC1=O.O=C(O)C(F)(F)F [Example 209]	> 128 µg/mL	16.6 µM	4 µg/mL	> 128 µg/mL	< 0.00585 µM	4 µg/mL	–	–	–	–	–	–	–
CO[C@H]1C[C@H]2C=CC3C4[C@H](O)[C@@H](C)[C@@H](OC(=O)c5ccc[nH]5)[C@@H]3O[C@]42/C(C)=C/[C@@H](C)[C@@H]([C@@H](C)OC(=O)C(=O)OCCN2CCN(C)CC2)OC1=O.O=C(O)C(F)(F)F [Example 210]	32 µg/mL	4.95 µM	1 µg/mL	> 128 µg/mL	< 0.00725 µM	1 µg/mL	–	–	–	–	–	–	–
CO[C@H]1CC2C=C[C@H]3[C@H]4O[C@]2(/C(C)=C/[C@@H](C)[C@@H](C(C)O)OC1=O)[C@@H]3[C@H](O)[C@@H](C)[C@H]4OC(=O)c1[nH]c(-c2ccsc2)c(-c2ccsc2)c1-c1ccsc1 (stereo partly drawn) [Example 201]	> 128 µg/mL	0.525 µM	> 128 µg/mL	128 µg/mL (≈ 168 µM)	0.394 µM	> 128 µg/mL	–	–	–	–	–	–	–
CO[C@H]1C[C@H]2C(=O)C[C@H]3[C@H]4O[C@]2(/C(C)=C/[C@@H](C)[C@@H]([C@@H](C)O)OC1=O)[C@@H]3[C@H](O)[C@@H](C)[C@H]4OC(=O)c1ccc[nH]1 [Example 182]	32 µg/mL (≈ 60.2 µM)	> 188 µM	32 µg/mL	> 128 µg/mL	0.0376 µM	8 µg/mL (≈ 15 µM)	–	–	–	–	–	–	–
CO[C@H]1C[C@H]2C=C[C@H]3[C@H]4O[C@]2(/C(C)=C/[C@@H](C)[C@@H]([C@@H](C)O)OC1=O)[C@@H]3[C@H](O)C(C)[C@@H]4NCCN.O=C(O)C(F)(F)F (stereo partly drawn) [Example 155]	128 µg/mL	–	> 128 µg/mL	> 128 µg/mL	–	> 128 µg/mL	> 173 µM	2.59 µM	–	–	–	–	–
CO[C@H]1C[C@H]2C=C[C@H]3[C@H]4O[C@]2(/C(C)=C/[C@@H](C)[C@@H]([C@@H](C)OC(=O)OC(C)C)OC1=O)[C@@H]3[C@H](O)[C@@H](C)[C@H]4OC(=O)c1ccc[nH]1 [Example 33]	> 128 µg/mL	58.2 µM	32 µg/mL	8 µg/mL (≈ 13.3 µM)	0.0349 µM	> 64 µg/mL	–	–	–	–	–	–	–
CO[C@H]1CC2C=C[C@H]3[C@H]4O[C@]2(/C(C)=C/[C@@H](C)[C@@H](C(C)NC2CC2)OC1=O)[C@@H]3[C@H](O)[C@@H](C)[C@H]4OC(=O)c1ccc[nH]1 (stereo partly drawn) [Example 185]	> 128 µg/mL	> 180 µM	> 128 µg/mL	> 128 µg/mL	< 0.0108 µM	> 128 µg/mL	–	–	–	–	–	–	–
CO[C@H]1CC2C=C[C@H]3[C@H]4O[C@]2(/C(C)=C/[C@@H](C)[C@@H](C(C)O)OC1=O)[C@@H]3[C@H](O)[C@@H](C)[C@H]4OC(=O)c1ccc[nH]1 (stereo partly drawn) [Nar, Nargenicin]	–	0.776 to 5.04 µM	–	–	–	–	–	–	8 µg/mL	0.25 to 0.5 µg/mL	>64 µg/mL	0.000388 to 0.0116 µM	0.25 to 0.5 µg/mL
COC1CC2C=CC3C4OC2(C(C)=CC(C)C(C(C)OC(=O)OCCN(CCO)CCO)OC1=O)C3C(O)C(C)C4OC(=O)c1ccc[nH]1 (stereo not drawn) [Example 32]	64 µg/mL (≈ 92.6 µM)	> 145 µM	2 µg/mL	> 128 µg/mL	~0.00651 µM	2 µg/mL (≈ 2.9 µM)	–	–	–	–	–	–	–
CO[C@H]1C[C@H]2C=CC3C4[C@H](O)[C@@H](C)[C@@H](OC(=O)c5ccc[nH]5)[C@@H]3O[C@]42/C(C)=C/[C@@H](C)C([C@@H](C)O)NC1=O (stereo partly drawn) [Example 170]	> 128 µg/mL	> 194 µM	> 128 µg/mL	> 128 µg/mL	2.53 µM	128 µg/mL (≈ 249 µM)	–	–	–	–	–	–	–
CO[C@H]1C[C@H]2C=C[C@H]3[C@H]4O[C@]2(/C(C)=C/[C@@H](C)[C@@H]([C@@H](C)O)OC1=O)[C@@H]3[C@H](O)[C@@H](C)[C@H]4OC(C)=O [Example 186]	16 µg/mL (≈ 34.4 µM)	64.6 µM	8 µg/mL	> 128 µg/mL	~0.00969 µM	4 µg/mL (≈ 8.61 µM)	–	–	–	–	–	–	–
CO[C@H]1C[C@H]2C=C[C@H]3[C@H]4O[C@]2(/C(C)=C/[C@@H](C)[C@@H]([C@@H](C)OC(=O)CCl)OC1=O)[C@@H]3[C@H](O)[C@@H](C)[C@H]4OC(=O)c1ccc[nH]1 [Example 59]	16 µg/mL (≈ 27 µM)	16.9 µM	0.25 µg/mL	64 µg/mL (≈ 108 µM)	< 0.0101 µM	0.25 µg/mL (≈ 0.422 µM)	–	–	–	–	–	–	–
CO[C@H]1C[C@H]2[C@H](O)C[C@H]3[C@H]4O[C@]2(/C(C)=C/[C@@H](C)[C@@H]([C@@H](C)O)OC1=O)[C@@H]3[C@H](O)[C@@H](C)[C@H]4OC(=O)c1ccc[nH]1 [Example 191]	> 128 µg/mL	> 187 µM	> 128 µg/mL	> 128 µg/mL	7.5 µM	128 µg/mL (≈ 240 µM)	–	–	–	–	–	–	–
